The values below come from patent US9388405B2, “Method for identifying a subpopulation of mammalian cells with distinctive ribosome translation profiles” (priority 2009, dated 2016).

What all share (format): cell-based, human
Experiment [1] concerns MCF7 mTRdm-fLuc subclones #8, #27, and #45. The experiment in a line: PKC activator dose response, cap-independent TR translation (fLuc). The conditions noted are these: single-Toxin. Here is the method:
Following 6 hr culture with a TPA single-Toxin assay, cells were lysed and fLuc protein activity measured using a standard microplate reader assay. The plate reader values were averaged and expressed as the ratio of treated to untreated samples (Fold Induction).
As with FIG. 27B, dashed lines represent translational response levels achieved by the 100 nM TPA assay in each cell line. […] A further difference between the cap-dependent and cap-independent assays was the observation that increased Bryostatin 2 concentrations (5× the maximal TPA dose) never produced fLUC activity equivalent to the 100 nM TPA assay. Thus, the Toxin Assay procedure can detect a statistically significant difference in cap-dependent and cap-independent translation in compounds that activate PKC activity.
In the cap-independent assays, a similar dose response trend was observed over a 1 nM to 250 nM range with a translational peak at a 100 nM dose. However, the magnitude of the Bryostatin increases were generally 30% of 100 nM TPA response.

In experiment [2] the test system is MCF7 CMV-fLuc subclones #44 and #48. Put plainly: PKC activator dose response, cap-dependent translation (fLuc). Conditions: single-Toxin. Here is the method: Following 6 hr exposure to the Single-Toxin TPA assay, cells were lysed and fLuc protein activity measured using a standard microplate reader assay. The raw values were averaged and expressed as the ratio of treated to untreated samples (Fold Induction).
Dashed lines represent translational response levels produced by a 100 nM TPA Single-Toxin assay. The Bryostatin 1 concentrations (top panel) encompassed the TPA concentrations used in FIG. 27A. […] The Bryostatin 2 dose response curve (bottom panel) employed higher drug concentrations (the maximal tested dose was 5× the largest TPA and Bryostatin 1 amounts). At the highest tested dose (2.5 uM), Bryostatin 2 produced fLuc activity consistent with the level observed with 100 nM TPA.
In addition to measuring cap-dependent and cap-independent translational effects, Class-specific translational activity and toxin-defined actions, the previously described materials and methods allow for a variety of applications designed to detect and characterize agents and processes that regulate ribosome activity. In this example, comparative dose response assays were used to detect cap-dependent and cap-independent translational regulation in MCF7 cells. The basis for this application was the observation that distinct translational responses are produced by compounds at different doses. When an assortment of compounds act on a common molecular target, they can be grouped into a genus of related drugs. By comparing individual species of a compound genus over a defined dose range, differences in translational regulation can be defined. Furthermore, these translational differences can often be linked to biological differences.
In this example (FIG. 27), the three PKC activators produced similar dose response trends in cap-dependent assays. […] However, macrolide lactones produced translational increases that were generally 60-70% of the TPA translational response (FIG. 27B). In fact, a 25 fold increase in Bryostatin 2 concentration (2.5 uM) was needed to produce a translational magnitude similar to the 100 nM TPA assay (FIG. 27B).

The subject of experiment [3] is HEK293 CMV-fLUC #3, hTRdm-fLUC #13 and mTRdm-fLUC #45 subclones. Put plainly: Translation elongation inhibitor single-Toxin and two-Toxin (100 nM TPA) dose response. Conditions: for low dose sufficient to reduce reporter protein levels below untreated control cells: HEK293 CMV-fLUC #3 and mTRdm-fLUC #45 subclones; for reporter protein level versus untreated control: 25 uM inhibitor + 100 nM TPA, HEK293 mTRdm-fLUC #45 subclone. Here is the method:
At sufficiently large doses, these inhibitors immediately stop protein translation, and the resulting protein turnover reduces reporter protein levels below untreated cell levels (<100% control).
For the HEK293 CMV-fLUC #3 (top panel) and mTRdm-fLUC #45 (bottom panel) subclones, anisomycin and emetine antagonized the TPA response at the lowest tested dose (10 nM) and reduced reporter protein levels 50-300% compared to the TPA single-Toxin assay. This contrasted with puromycin, which required a 250 nM concentration (25×) to initially reduce protein synthesis below the TPA Single-Toxin assay level in all three cell lines. […] For example, the CMV-fLUC #3 subclone required a 2.5 uM puromycin dose to correlate with the other inhibitors, which contrasted with hTRdm-fLUC #13 and mTRdm-fLUC #45 subclones which needed a 25 uM puromycin concentration (a 10× increase).
In this example (FIG. 33), single-Toxin and two-Toxin dose responses were used to define translational responses associated with translation inhibitors. Inhibitors of protein biosynthesis generally act by interfering with translational initiation (assembly of the components or structures required for translation) or elongation (enzymatic process of peptide synthesis and chain movement within the ribosome). A variety of translational inhibitors exist that affect each of these stages. Due to the fact that cap-dependent and cap-independent translation display distinct translational initiation mechanisms, this example focused on translational inhibitors associated with peptide elongation. Since the majority of these enzymatic processes are common to cap-dependent and cap-independent translation, any significant differences in chain elongation reflect differences in peptide synthesis.
A dose response single-Toxin assay was used to examine translation regulation in HEK293 cells (FIG. 33A). […] For example, translation inhibition stops reporter protein production, and protein turnover reduces reporter activity below the basal level. In this example, a 250 nM concentration of each inhibitor was sufficient to reduce protein synthesis below control cell levels in cap-dependent and cap-independent assays (FIG. 33A). Furthermore, any dose above 2.5 uM produced only minimal additional reductions in reporter protein activity supporting the theory that translation in these assays had ceased.
In a second effort, a two-Toxin dose response assay was performed by varying the concentration of the elongation inhibitors in combination with the 100 nM TPA activator (FIG. 33B). This combinatorial assay was designed to examine protein synthesis in stimulated cells preferentially translating the TR transcript. As in the single-Toxin assays, cap-dependent translation was arrested by 2.5 uM puromycin (top panel) which contrasted with the cap-independent assays where a 10× increase in puromycin concentration (25 uM) was needed to prevent new protein synthesis. However even at this highest tested dose, immediate translation inhibition was not observed in any cell line (FIG. 33C).

Experiment [4] relates to MCF7 CMV-fLuc subclone #65. Put plainly: Topoisomerase 1 inhibitor single-Toxin and two-Toxin (100 nM TPA) dose response, cap-dependent. Conditions: 10 nM to 10 uM; for dose at peak of fLuc protein expression: 6 hr; for dose at peak of fLuc protein expression / effect on TPA-specific translational response: cap-dependent; for effect on TPA-specific translational response: two-Toxin with constant 100 nM TPA. Here is the method:
FIG. 28A illustrates a dose response assay of the MCF7 CMV-fLuc subclone #65 treated with varying doses (10 nM to 10 uM range) of the following Topoisomerase 1 inhibitors: camptothecin, topotecan, irinotecan, and rubitecan. Following a 6 hr incubation in a single-Toxin assay, cells were lysed and fLuc protein activity measured using a standard microplate reader assay. The plate reader values were averaged and expressed as the ratio of treated to untreated samples (Fold Induction). The dashed line represents the level of translational response in untreated cell samples.
FIG. 28B illustrates the use of a Combinatorial Assay to examine the effects of Topoisomerase 1 inhibitors on cap-dependent translation. A series of dose response assays were performed on the MCF7 CMV-fLuc subclone #65 using varying doses of the Topoisomerase 1 inhibitors (10 nM to 10 uM range) in a Two-Toxin assay with a constant 100 nM TPA dose. The plate reader values were averaged and expressed as the ratio of treated to untreated samples (Fold Induction). The dashed line represents the level of translational response in untreated samples.
FIG. 28A illustrates a cap-dependent dose response assay of MCF7 cells treated with varying dosages (10 nM to 10 uM range) of the following TopoI inhibitors: camptothecin, topotecan, irinotecan, and rubitecan. […] While the altered irinotecan response might have been predicted based on its metabolic requirements, the lack of topotecan action on cap-dependent translation in the single-Toxin assays was unexpected.
Since similar doses inhibited translation in the single-Toxin assays (FIG. 28A), this effect might have represented a direct effect on translation.

Experiment [5] deals with MCF7 mTRdm-fLuc subclone #27. Put plainly: Topoisomerase 1 inhibitor single-Toxin and two-Toxin (100 nM TPA) dose response, cap-independent. The conditions noted are these: 10 nM to 10 uM; for effect on cap-independent translation: single-Toxin; for effect on TPA activity: two-Toxin with 100 nM TPA. As for the experimental part:
FIG. 28C illustrates the use of single-Toxin Assays to measure the effects of Topoisomerase 1 inhibitors on cap-independent translation in MCF7 cells. Triplicate samples of the MCF7 mTRdm-fLuc subclone #27 were treated with varying concentrations (10 nM to 10 uM range) of the Topoisomerase 1 inhibitors; camptothecin, rubitecan, irinotecan and topotecan. The plate reader values were averaged and expressed as the ratio of treated to untreated samples (Fold Induction). The dashed line represents the level of translational response in untreated controls.
FIG. 28D illustrates the use of a two-Toxin Combinatorial Assay on the MCF7 mTRdm-fLuc subclone #27 treated with 100 nM TPA plus varying doses (10 nM to 10 uM range) of the Topoisomerase 1 inhibitors. The plate reader values were averaged and expressed as the ratio of treated to untreated samples (Fold Induction). The dashed line represents the level of translational response in untreated samples. All four inhibitors acted synergistically with TPA to increase protein activity in the 10 nM two-Toxin assay.
FIG. 28D illustrates the use of a two-Toxin dose response assay using varying dosages of the TopoI inhibitors in combination with the 100 nM TPA translational activator. All four inhibitors acted synergistically with TPA at low doses to increase protein translation. At concentrations higher than 100 nM, camptothecin, rubitecan, and topotecan antagonized the TPA response and reduced the fLUC expression.

As for `CCC/C=C/C=C/C(=O)O[C@H]1/C(=C/C(=O)OC)C[C@H]2C[C@H]([C@@H](C)O)OC(=O)C[C@H](O)C[C@@H]3C[C@H](OC(C)=O)C(C)(C)[C@](O)(C[C@@H]4C/C(=C/C(=O)OC)C[C@H](/C=C/C(C)(C)[C@]1(O)O2)O4)O3` [Bryostatin 1], the “magnitude of translational response versus 100 nM TPA tests” value in experiment [1] is given as “never reached the fLuc activity produced in 100 nM TPA tests”. In addition, the “dose giving peak fLuc protein activity” value in experiment [1] (6 hr) was 100 nM. Besides, the “magnitude of reporter activity versus 100 nM TPA assay” value in experiment [2] (500 pM to 500 nM) is “never reached the fLuc activity level produced by the 100 nM TPA assay”. Moreover, the “dose giving maximal reporter level (translational peak)” value in experiment [2] (6 hr) amounted to 100 nM.
In the case of `COc1ccc(C[C@H]2NC[C@H](O)[C@H]2OC(C)=O)cc1` [anisomycin], in experiment [3] (10 nM inhibitor + 100 nM TPA, CMV-fLUC #3 and mTRdm-fLUC #45), the “reduction of reporter protein levels compared to the TPA single-Toxin assay” value is reported as 50-300%. In addition, the “low dose sufficient to reduce reporter protein levels below untreated control cells” value in experiment [3] (single-Toxin) was around 25 nM.
`CC[C@@]1(O)C(=O)OCc2c1cc1n(c2=O)Cc2cc3ccccc3nc2-1` [camptothecin]: the “dose at peak of fLuc protein expression” value in experiment [4] (single-Toxin) is around 1 µM. Also, in experiment [4], the “effect on TPA-specific translational response” value is listed as “acted synergistically with TPA to increase fLUC protein activity up to a 1 uM dose”. For the same compound, in experiment [5], the “effect on cap-independent translation” value is “exhibited reduced fLUC activity at higher doses (5 uM and 10 uM)”; the “effect on TPA activity” value was “antagonized the TPA activity and exhibited reduced fLUC expression”.
On to `C[C@@H]1C[C@@H]([C@H](O)CC2CC(=O)NC(=O)C2)C(=O)[C@@H](C)C1` [cycloheximide], for which the “reporter protein level versus untreated control” value in experiment [3] is reported as “little or no reduction below untreated control cell levels”.
Consider `CC[C@H]1CN2CCc3cc(OC)c(OC)cc3[C@@H]2C[C@@H]1C[C@H]1NCCc2cc(OC)c(OC)cc21` [emetine], for which the “reporter protein level versus untreated control” value in experiment [3] is recorded as “little or no reduction below untreated control cell levels”. In addition, the “low dose sufficient to reduce reporter protein levels below untreated control cells” value in experiment [3] (single-Toxin) was 100 nM.
Take `CCc1c2c(nc3ccc(OC(=O)N4CCC(N5CCCCC5)CC4)cc13)-c1cc3c(c(=O)n1C2)COC(=O)[C@]3(O)CC` [irinotecan]: the “effect on cap-dependent translation” value in experiment [4] (single-Toxin) is given as “neither topotecan or irinotecan significantly altered cap-dependent translation”. The “effect on TPA-specific translational response” value in experiment [4] was “did not produce any significant change in the TPA-specific translational response”. Besides, in experiment [5], the “effect on cap-independent translation” value is given as “constant amount of fLUC activity at all tested concentrations”; the “effect on TPA activity” value is “displayed synergistic action with TPA and enhanced fLUC activity at all tested doses”.
In the case of `COc1ccc(C[C@H](N)C(=O)N[C@H]2[C@@H](O)[C@H](n3cnc4c(N(C)C)ncnc43)O[C@@H]2CO)cc1` [puromycin], the “reporter protein level versus untreated control” value in experiment [3] is reported as “little or no reduction below untreated control cell levels”. Moreover, the “concentration required to reduce reporter protein levels to levels comparable to the other three inhibitors” value in experiment [3] (single-Toxin, cap-dependent and cap-independent) was 2.5 µM. The “dose required to correlate with the other inhibitors (translation arrested)” value in experiment [3] (two-Toxin with 100 nM TPA, CMV-fLUC #3 subclone, cap-dependent) was 2.5 µM. For the same compound, the “concentration required to initially reduce protein synthesis below the TPA Single-Toxin assay level” value in experiment [3] (two-Toxin with 100 nM TPA, all three cell lines) is 250 nM. The “concentration needed to correlate with the other inhibitors (prevent new protein synthesis)” value in experiment [3] (two-Toxin with 100 nM TPA, hTRdm-fLUC #13 and mTRdm-fLUC #45, cap-independent) is 25 µM.
On to `CC[C@@]1(O)C(=O)OCc2c1cc1n(c2=O)Cc2cc3c([N+](=O)[O-])cccc3nc2-1` [rubitecan], for which the “dose at peak of fLuc protein expression” value in experiment [4] (single-Toxin) was around 1 µM. Further, the “effect on TPA-specific translational response” value in experiment [4] was “acted synergistically with TPA to increase fLUC protein activity up to a 1 uM dose”. In experiment [5], the “effect on cap-independent translation” value is “exhibited reduced fLUC activity at higher doses (5 uM and 10 uM)”; the “effect on TPA activity” value is “antagonized the TPA activity and exhibited reduced fLUC expression”.
